Numbered stars: 1 amine (or outer) side, 2 acyl side, 3 side chain; on linkers, the order of the positions; unused ones are H or OH. Square brackets hold non-standard residues; d marks the D form. Side chains are listed from the residue outwards. Peptide text beside a SMILES is read from it. * marks the point of attachment. C18 diacid = O=C(O)CCCCCCCCCCCCCCCCC(=O)*; γGlu = O=C(O)[C@H](CCC(=O)[*:2])N[*:1]; Ac4c = NC1(C(=O)O)CCC1; Aib = CC(C)(N)C(=O)O
How the values were obtained:
[1] = target: T1, human GLP-1 receptor (Homo sapiens, UniProt P43220); assay: GLP-1 receptor binding, 125I-GLP-1 displacement SPA on isolated membranes; details: displacement of 125I-GLP-1 from membranes; read-out: IC50 GLP-1R
T1 construct: expressed in transfected cells; host or cells: BHK cells (parent BHKTS13), clone FCW467-12A/KZ10-1, with CRE luciferase
In short: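 SPA displacement of 125I-GLP-1(7-36)NH2 from membranes of BHK cells expressing human GLP-1 receptor, with WGA beads, in 50 mM HEPES, 5 mM EGTA, 5 mM MgCl2, 0.005% Tween 20, pH 7.4. Incubated 2 h at 30°C; IC50 by non-linear regression, run at ≤0.001% or 2.0% final serum albumin.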

[2] = Chemical stability assessment by RP-UPLC; assay type: physicochemical; details: 333 μM, 8 mM phosphate buffer pH 7.3, 37° C. vs 5° C.
In short: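 Purity loss = (purity after 14 days at 5° C. minus that at 37° C.) relative to the 5° C. value, purity being main-peak area % by RP-UPLC with UV at 215 nm. Samples were 333 μM in 8 mM phosphate, pH 7.3; gradient adjusted for outlying retention times.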

T1 sequence (P43220 24-463): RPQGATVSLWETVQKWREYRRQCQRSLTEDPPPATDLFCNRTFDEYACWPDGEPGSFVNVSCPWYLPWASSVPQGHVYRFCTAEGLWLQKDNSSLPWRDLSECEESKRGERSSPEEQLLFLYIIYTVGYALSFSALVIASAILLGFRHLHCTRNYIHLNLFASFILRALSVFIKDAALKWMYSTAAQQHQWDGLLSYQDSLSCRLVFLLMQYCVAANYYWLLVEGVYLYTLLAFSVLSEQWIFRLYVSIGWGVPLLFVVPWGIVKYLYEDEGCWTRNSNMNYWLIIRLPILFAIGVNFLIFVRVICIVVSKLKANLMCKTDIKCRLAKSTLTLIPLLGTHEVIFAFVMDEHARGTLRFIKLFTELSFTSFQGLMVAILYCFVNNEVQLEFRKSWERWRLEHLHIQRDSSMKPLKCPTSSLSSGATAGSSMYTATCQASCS

Row | IC50 [1] | Purity loss; 14 days at 37° C. [2] | SMILES
1 | 0.3 nM | 3% | CC(C)C[C@H](NC(=O)[C@H](Cc1ccc(O)cc1)NC(=O)[C@H](CCCCN)NC(=O)[C@H](CO)NC(=O)[C@H](CC(C)C)NC(=O)[C@H](CC(=O)O)NC(=O)[C@H](CO)NC(=O)[C@@H](NC(=O)[C@H](Cc1ccccc1)NC(=O)[C@@H](NC(=O)CNC(=O)[C@H](CCC(N)=O)NC(=O)C1(NC(=O)[C@@H](N)Cc2c[nH]cn2)CCC1)[C@@H](C)O)[C@@H](C)O)C(=O)N[C@@H](CCC(=O)O)C(=O)N[C@@H](CO)C(=O)N[C@@H](CCCCN)C(=O)N[C@@H](CCCNC(=N)N)C(=O)N[C@@H](C)C(=O)N[C@@H](CCCNC(=N)N)C(=O)N[C@@H](CCC(=O)O)C(=O)N[C@@H](Cc1ccccc1)C(=O)N[C@H](C(=O)N[C@@H](CCC(N)=O)C(=O)N[C@@H](Cc1c[nH]c2ccccc12)C(=O)N[C@@H](CC(C)C)C(=O)N[C@@H](CC(C)C)C(=O)N[C@@H](CCCCNC(=O)CC[C@H](NC(=O)CC[C@H](NC(=O)[C@H](CO)NC(=O)[C@H](CCC(=O)O)NC(=O)[C@H](CO)NC(=O)CC[C@H](NC(=O)CC[C@H](NC(=O)CCCCCCCCCCCCCCCCC(=O)O)C(=O)O)C(=O)O)C(=O)O)C(=O)O)C(=O)N[C@H](C(N)=O)[C@@H](C)O)C(C)C [Example 68, N^ε28-[(4S)-4-carboxy-4-[[(4S)-4-carboxy-4-[[(2S)-2-[[(2S)-4-carboxy-2-[[(2S)-2-[[(4S)-4-carboxy-4-[[(4S)-4-carboxy-4-(17-carboxyheptadecanoylamino)butanoyl]amino]butanoyl]amino]-3-hydroxypropanoyl]amino]butanoyl]amino]-3-hydroxypropanoyl]amino]butanoyl]amino]butanoyl]-[Acb2,Leu10,Glu15,Lys17,Arg20,Glu21,Leu27,Lys28]-Glucagon amide] (H-H[Ac4c]QGTFTSDLSKYLESKRAREFVQWLLK([γGlu-γGlu-Ser-Glu-Ser-γGlu-γGlu-C18 diacid])T-NH2; N-terminus assumed)
2 | 0.2 nM | 2% | CC(C)C[C@H](NC(=O)[C@H](Cc1ccc(O)cc1)NC(=O)[C@H](CCCCN)NC(=O)[C@H](CO)NC(=O)[C@H](CC(C)C)NC(=O)[C@H](CC(=O)O)NC(=O)[C@H](CO)NC(=O)[C@@H](NC(=O)[C@H](Cc1ccccc1)NC(=O)[C@@H](NC(=O)CNC(=O)[C@H](CCC(N)=O)NC(=O)C(C)(C)NC(=O)[C@@H](N)Cc1c[nH]cn1)[C@@H](C)O)[C@@H](C)O)C(=O)N[C@@H](CCC(=O)O)C(=O)N[C@@H](CO)C(=O)N[C@@H](CCCCN)C(=O)N[C@@H](CCCNC(=N)N)C(=O)N[C@@H](C)C(=O)N[C@@H](CCCNC(=N)N)C(=O)N[C@@H](CO)C(=O)N[C@@H](Cc1ccccc1)C(=O)N[C@H](C(=O)N[C@@H](CCC(N)=O)C(=O)N[C@@H](Cc1c[nH]c2ccccc12)C(=O)N[C@@H](CC(C)C)C(=O)N[C@@H](CC(C)C)C(=O)N[C@@H](CCCCNC(=O)CC[C@H](NC(=O)CC[C@H](NC(=O)[C@H](CO)NC(=O)[C@H](CCC(=O)O)NC(=O)[C@H](CO)NC(=O)CC[C@H](NC(=O)CC[C@H](NC(=O)CCCCCCCCCCCCCCCCC(=O)O)C(=O)O)C(=O)O)C(=O)O)C(=O)O)C(=O)N[C@H](C(N)=O)[C@@H](C)O)C(C)C [Example 69, N^ε28-[(4S)-4-carboxy-4-[[(4S)-4-carboxy-4-[[(2S)-2-[[(2S)-4-carboxy-2-[[(2S)-2-[[(4S)-4-carboxy-4-[[(4S)-4-carboxy-4-(17-carboxyheptadecanoylamino)butanoyl]amino]butanoyl]amino]-3-hydroxypropanoyl]amino]butanoyl]amino]-3-hydroxypropanoyl]amino]butanoyl]amino]butanoyl]-[Aib2,Leu10,Glu15,Lys17,Arg20,Ser21,Leu27,Lys28]-Glucagon amide] (H-H[Aib]QGTFTSDLSKYLESKRARSFVQWLLK([γGlu-γGlu-Ser-Glu-Ser-γGlu-γGlu-C18 diacid])T-NH2; N-terminus assumed)

— patent US9474790B2, “Stable, protracted GLP-1/glucagon receptor co-agonists for medical use” (Novo Nordisk A/S, priority 2013, dated 2016)
